# In patent US6375979B2 (Somerset Pharmaceuticals, Inc., priority 1995, dated 2002):
# Values joined by “and” are separate entries in the source; they are usually repeats but may differ in a detail not shown here. Identical values can stand only once. Like-named read-outs stand apart in the source and are kept apart here.
# Legend:
# MAO-A [1] = molecular target: T1, MAO-A (Rattus norvegicus, UniProt P21396)
# T1 sequence (P21396 1-526): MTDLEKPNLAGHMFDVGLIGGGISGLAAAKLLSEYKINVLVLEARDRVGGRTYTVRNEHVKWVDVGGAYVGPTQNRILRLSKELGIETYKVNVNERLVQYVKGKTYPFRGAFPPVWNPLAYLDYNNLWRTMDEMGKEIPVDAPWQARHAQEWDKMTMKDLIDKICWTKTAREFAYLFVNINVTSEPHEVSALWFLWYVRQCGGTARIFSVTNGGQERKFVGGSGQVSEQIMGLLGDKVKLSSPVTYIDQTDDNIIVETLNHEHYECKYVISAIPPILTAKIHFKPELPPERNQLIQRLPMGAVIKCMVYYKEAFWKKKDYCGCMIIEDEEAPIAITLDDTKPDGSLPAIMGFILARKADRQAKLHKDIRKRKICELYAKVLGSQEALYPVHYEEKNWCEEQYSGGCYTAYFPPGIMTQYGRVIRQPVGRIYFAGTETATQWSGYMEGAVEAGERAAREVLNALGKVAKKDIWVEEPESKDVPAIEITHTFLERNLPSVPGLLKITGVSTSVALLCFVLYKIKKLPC
# [2] = tested on: cultured rat mesencephalic cells exposed to NMDA; assay: NMDA model of cell death: TH immunochemistry; settings: 100 μM NMDA exposure
# Description: Rat mesencephalic cell cultures were exposed to 100 μM NMDA and incubated as described above in connection with FIG. 16.
# [3] = tested on: cultured rat mesencephalic cells; assay: Medium change (glutamate receptor dependent) model of cell death: TH positive cells; settings: medium change model
# Description: In these experiments, cells were plated and allowed to stabilize for several days.
# MAO-A [4] = molecular target: T2, MAO-A (Cavia porcellus, UniProt H0UVA2); assay: MAO-A inhibition in guinea pig hippocampal homogenates in vitro; assay type: biochemical; set-up: by human platelets and/or guinea pig hippocampal homogenates; from tissue; host or cells: guinea pig hippocampus homogenate; settings: for reduction in potency compared to selegiline (value in parentheses): MAO-A IC50, guinea pig hippocampal cortex
# T2 sequence (H0UVA2 1-461): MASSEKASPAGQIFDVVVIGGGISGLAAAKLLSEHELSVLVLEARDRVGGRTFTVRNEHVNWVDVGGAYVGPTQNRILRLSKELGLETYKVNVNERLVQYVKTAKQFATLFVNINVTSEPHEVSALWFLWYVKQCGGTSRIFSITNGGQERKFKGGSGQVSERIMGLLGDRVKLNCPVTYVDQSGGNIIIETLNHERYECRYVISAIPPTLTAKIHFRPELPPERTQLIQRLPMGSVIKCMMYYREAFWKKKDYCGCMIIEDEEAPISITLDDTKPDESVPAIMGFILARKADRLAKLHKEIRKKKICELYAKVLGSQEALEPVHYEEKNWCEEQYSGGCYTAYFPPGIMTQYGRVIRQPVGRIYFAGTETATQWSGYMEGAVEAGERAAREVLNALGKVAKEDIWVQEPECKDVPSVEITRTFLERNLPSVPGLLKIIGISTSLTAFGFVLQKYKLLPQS
# From the text: Human platelet MAO is comprised exclusively of the type-B isoform of the enzyme. […] The present study also examined the two enantiomers of DMS for inhibitory activity with respect to the MAO-A and MAO-B in guinea pig hippocampal tissue. Guinea pig brain tissue is an excellent animal model for studying brain dopamine metabolism, the enzyme kinetics of the multiple forms of MAO and the inhibitory properties of novel agents that interact with these enzymes. The multiple forms of MAO in this animal species show similar kinetic properties to those found in human brain tissue. Finally, the test agents were administered to guinea pigs and the extent to which they might act as inhibitors of brain MAO in vivo was assessed.
# In vitro: The test system utilized the in vitro conversion of specific substrates of MAO-A (^14C-serotonin) and MAO-B (^14C-phenylethylamine) by human platelets and/or guinea pig hippocampal homogenates. […] A percent inhibition was calculated from these values.
# [5] = tested on: cultured embryonic mesencephalic cells; assay: Neuronal survival: [3H]dopamine uptake by cultured mesencephalic cells; assay type: cell-based, rat
# From the text: The amount of uptake by the cultured brain cells corresponds to axonal growth.
# MAO-A [6] = molecular target: T2, MAO-A; assay: In vivo MAO-A inhibition in guinea pig cortex (hippocampus) after 5 s.c. treatments; settings: 10 mg/kg, highest dose tested
compound,measurement,setting,value
desmethylselegiline [R(−)DMS],inhibition,MAO-A [1]; 0.3 µM,0%
same,inhibition,MAO-A [1]; 1 μM,0.7%
same,inhibition,MAO-A [1]; 3 µM,4.1%
same,inhibition,MAO-A [1]; 10 μM,11.8%
same,inhibition,MAO-A [1]; 100 μM,56.1%
same,"TH Immunochemistry, % control, Mean",[2]; 0.5 μM,97.3%
same,"TH Immunochemistry, % control, individual cultures",[2]; 0.5 μM,100.9% and 79.6% and 111.5%
same,"TH Immunochemistry, cells/cm^2, Mean",[2]; 0.5 μM,91.67 cells/cm^2
same,"TH Immunochemistry, cells/cm^2, individual cultures",[2]; 0.5 μM,95.0 cells/cm^2 and 75.0 cells/cm^2 and 105.0 cells/cm^2
same,"TH Immunochemistry, % control, Mean",[2]; 5.0 μM,136.1%
same,"TH Immunochemistry, % control, individual cultures",[2]; 5.0 μM,151.3% and 130.1% and 138.1% and 124.8%
same,"TH Immunochemistry, cells/cm^2, Mean",[2]; 5.0 μM,128.13 cells/cm^2
same,"TH Immunochemistry, cells/cm^2, individual cultures",[2]; 5.0 μM,142.5 cells/cm^2 and 122.5 cells/cm^2 and 130.0 cells/cm^2 and 117.5 cells/cm^2
same,"TH Immunochemistry, % control, Mean",[2]; 50 μM,165.9%
same,"TH Immunochemistry, % control, individual cultures",[2]; 50 μM,252.2% and 180.5% and 108.8% and 122.1%
same,"TH Immunochemistry, cells/cm^2, Mean",[2]; 50 μM,156.25 cells/cm^2
same,"TH Immunochemistry, cells/cm^2, individual cultures",[2]; 50 μM,237.5 cells/cm^2 and 170.0 cells/cm^2 and 102.5 cells/cm^2 and 115.0 cells/cm^2
same,"TH Immunochemistry, % control, Mean",[3]; 0.5 μM,123.9%
same,"TH Immunochemistry, % control, individual cultures",[3]; 0.5 μM,129.0% and 117.6% and 125.2%
same,"TH Immunochemistry, cells/cm^2, Mean",[3]; 0.5 μM,335.63 cells/cm^2
same,"TH Immunochemistry, cells/cm^2, individual cultures",[3]; 0.5 μM,340.0 cells/cm^2 and 310.0 cells/cm^2 and 330.0 cells/cm^2 and 362.5 cells/cm^2
same,"TH Immunochemistry, % control, Mean",[3]; 5.0 μM,132.1%
same,"TH Immunochemistry, % control, individual cultures",[3]; 5.0 μM,122.3% and 129.9% and 137.5% and 138.5%
same,"TH Immunochemistry, cells/cm^2, Mean",[3]; 5.0 μM,348.13 cells/cm^2
same,"TH Immunochemistry, cells/cm^2, individual cultures",[3]; 5.0 μM,322.5 cells/cm^2 and 342.5 cells/cm^2 and 362.5 cells/cm^2 and 365.0 cells/cm^2
same,"TH Immunochemistry, % control, Mean",[3]; 50 μM,144.9%
same,"TH Immunochemistry, % control, individual cultures",[3]; 50 μM,117.6% and 167.9% and 144.1% and 149.8%
same,"TH Immunochemistry, cells/cm^2, Mean",[3]; 50 μM,381.88 cells/cm^2
same,"TH Immunochemistry, cells/cm^2, individual cultures",[3]; 50 μM,310.0 cells/cm^2 and 442.5 cells/cm^2 and 380.0 cells/cm^2 and 395.0 cells/cm^2
same,MAO-A % Inhibition x = SEM,"MAO-A [4]; 300 nM, guinea pig hippocampus",4.8 ± 2.1%
same,MAO-A % Inhibition x = SEM,"MAO-A [4]; 1 μM, guinea pig hippocampus",4.2 ± 1.5%
same,MAO-A % Inhibition x = SEM,"MAO-A [4]; 3 μM, guinea pig hippocampus",10.5 ± 2.0%
same,MAO-A % Inhibition x = SEM,"MAO-A [4]; 10 μM, guinea pig hippocampus",19.0 ± 1.3%
same,MAO-A % Inhibition x = SEM,"MAO-A [4]; 100 μM, guinea pig hippocampus",64.2 ± 1.5%
same,MAO-A % Inhibition x = SEM,"MAO-A [4]; 1 mM, guinea pig hippocampus",96.5 ± 1.2%
same,reduction in potency compared to selegiline (value in parentheses),MAO-A [4],20
same,IC50,MAO-A [4]; read-out: IC50 for MAO-A in Guinea Pig Hippocampal Cortex,50 µM
same,"3H-Dopamine Uptake, % Cont",[5]; 0.5 μM,200.4%
same,"3H-Dopamine Uptake, Mean",[5]; 0.5 μM,24020 ± 800
same,"3H-Dopamine Uptake, % Cont",[5]; 5 μM,291.5%
same,"3H-Dopamine Uptake, Mean",[5]; 5 μM,34936 ± 2119
same,"3H-Dopamine Uptake, % Cont",[5]; 50 μM,474.3%
same,"3H-Dopamine Uptake, Mean",[5]; 50 μM,56826 ± 2656
"C#CCN[C@@H](C)Cc1ccccc1 (single isomer, unassigned) [S(+)DMS, ent-desmethylselegiline]",inhibition of MAO-A activity in vivo,MAO-A [6],did not cause any observable inhibition
same,IC50,MAO-A [4],100 µM
same,inhibition at 1 µM,"MAO-A [4]; 1 μM, guinea pig hippocampus, read-out: MAO-A % Inhibition x = SEM",3.3 ± 1.5%
same,inhibition at 3 µM,"MAO-A [4]; 3 μM, guinea pig hippocampus, read-out: MAO-A % Inhibition x = SEM",4.3 ± 1%
same,inhibition at 10 µM,"MAO-A [4]; 10 μM, guinea pig hippocampus, read-out: MAO-A % Inhibition x = SEM",10.5 ± 1.47%
same,inhibition at 100 µM,"MAO-A [4]; 100 μM, guinea pig hippocampus, read-out: MAO-A % Inhibition x = SEM",48.4 ± 1.8%
same,inhibition at 1000 µM,"MAO-A [4]; 1 mM, guinea pig hippocampus, read-out: MAO-A % Inhibition x = SEM",92.7 ± 2.5%
same,inhibition at 10000 µM,"MAO-A [4]; 10 mM, guinea pig hippocampus, read-out: MAO-A % Inhibition x = SEM",99.6 ± 0.35%
same,reduction in potency compared to selegiline (value in parentheses),MAO-A [4],40
